Experimental data taken from ChEMBL document CHEMBL3507680, “University of Dundee, Gates Library screen for HepG2 cell viability”.

experiment: Human HepG2 cell viability assay in 384 well format; format: toxicity, cell-based; set-up: dose 125 nL, time 70.5 hour; cytotoxicity at 70.5 h: concentration not given beside the values; conditions: HepG2 cells, read-out: Inhibition

SMILES | cytotoxicity at 70.5 h [%]
c1cc(CN2C[C@H](OCC3CCOCC3)[C@H]3COC[C@H]32)co1 | 12.4
COCC1CN(C(=O)Nc2cc(C(F)(F)F)ccc2F)CCO1 (stereo unspecified) | -5.23
CC(C)C(C)n1nccc1NC(=O)Cn1cnc2ccccc21 (stereo unspecified) | -12.4
CCOc1ccc(Cl)cc1CCNC(=O)c1ccc(=O)n(C)c1 | -10.2
CC(NCc1nnc2n1CCCC2)C(=O)N1CCc2sccc2C1 (stereo unspecified) | -2.4
Cc1noc2ncc(C(=O)NCC3CCS(=O)(=O)C3)cc12 (stereo unspecified) | -7.14
COc1cc2c(cc1C(=O)N1CCCCC1c1ccccn1)CCC2 (stereo unspecified) | -24
CCNc1cc2c(nn1)CCN(C(=O)c1ccc(C(N)=O)cc1)C2 | 20.2
CS(=O)(=O)CC(=O)N1C[C@H]2CCC[C@@]2(COc2ccccn2)C1 | 12.7
Cc1cc(C(=O)N(C)C)nc(C2(C)CCCN2c2ccccc2)n1 (stereo unspecified) | -2.68
Cn1ccc(CN2CCCC2c2ccc3c(c2)OCCCO3)cc1=O (stereo unspecified) | -12.3
COc1cc(N2CC[C@H]3OCC[C@@]3(COc3nccc(C)n3)C2)ncn1 | -17.3
Cc1nn(C)c(Cl)c1C1CCCN1C(=O)c1csnn1 (stereo unspecified) | -4.32
Cc1nccn1CCN(C)c1nc(-c2cccnc2)nc2c1CCNC2 | -3.49
COCCNC(=O)C(C)N1CCN(C)CC1 (stereo unspecified) | -5.18
O=C(c1ccccc1F)N1C[C@@H]2COC[C@]2(COCc2cccnc2)C1 | -1.45
COc1cc(Cl)ccc1C(=O)N1CCCC(c2cc(C)[nH]n2)C1 (stereo unspecified) | 36.1
CC(C)OCCN1CCN(C(=O)c2cc(-n3cccn3)ccn2)CC1 | -4.55
CCc1cnc(NCCS(=O)(=O)N(C)C)nc1 | 20.6
CCc1nnc2n1CCN(C(=O)c1ccc3[nH]nnc3c1)C2 | -8.74
OCC1COCCN(Cc2cc(C3CCCCC3)no2)C1 (stereo unspecified) | -9.08
Cn1cnc2c1CCN(Cc1c(Cl)ccc3cccnc13)C2 | 0.125
CC(N)Cc1ccccc1Sc1ccccc1 (stereo unspecified) | -1.45

SMILES | cytotoxicity at 70.5 h [%]
Cc1ccccc1N1CCN(C(=O)c2cscn2)C(C)C1 (stereo unspecified) | -1.54
CC1CCN(C(=O)[C@H]2C[C@@H]3CCN(CC4CCOCC4)C[C@@H]3O2)CC1 | -6.29
CCOCCC(=O)Nc1cc(C(N)=O)ccc1N1CCCC(C)C1 (stereo unspecified) | -2.01
CCc1c(C)sc2c1c(N)nc(=O)n2CCN(C)C | 18.9
CN1CCCc2sc(C(=O)NC3CC3)nc21 | -1.86
Cc1cc(Br)cnc1N(C)CC1CCOC1 (stereo unspecified) | -3.38
COCc1nn(CC2CC2)c2c1CN(Cc1cncn1C)CC2 | 2.02
CCCNCc1ccc(OCc2ccc3c(c2)OCCO3)cc1 | 33.3
CC(C(=O)N1CCCN(Cc2cnn(C(C)C)c2)CC1)n1ccnc1 (stereo unspecified) | 23.5
Cn1cccc1C(=O)N1CCN2C[C@H](Oc3cccnc3)C[C@H]2C1 | 21.7
Cc1ncsc1C(=O)NC1CCN(CC(N)=O)CC1 | -6.12
Fc1ccccc1CNc1ccnc(C2CCNCC2)c1 | 18
O=C(NCCc1ccc(Cl)s1)NCc1nnc2n1CCCC2 | -12.9
CCC(CO)NC(=O)NCc1cc(C#N)ccc1F (stereo unspecified) | -9.99
O=C(Nc1ccccc1OC(F)F)C1=NN(c2ccccc2)C(=O)CN1 | -8.48
Cc1nnc(NC(=O)NCC(C)N2CCOCC2)s1 (stereo unspecified) | -11
O=C(Cc1ccccc1Cl)N1CCN(CC(O)COCCO)CC1 (stereo unspecified) | 1.21
Cc1cc(CN2CCC(C3CCN(CCc4ccccc4)C3)CC2)[nH]n1 (stereo unspecified) | -0.374
Cc1[nH]ncc1CCCNC(=O)Nc1ccc2c(c1)OC1(CCCC1)O2 | -2.92
CC(CN1CCOCC1)NC(=O)NCCc1ccc(Cl)s1 (stereo unspecified) | -6.3
Cc1cnn(CCNCC(=O)N2CCN(c3ncccn3)CC2)c1 | -4.23
CC1(C(=O)N2CCSCC2)CNCCO1 (stereo unspecified) | 11.8
Cc1nc(NCc2nccn2C)cc(C2COCCN2)n1 (stereo unspecified) | -11.1
